Test results reported in ChEMBL document CHEMBL5505966, “Synthesis and pharmacological characterization of conformationally restricted 2-amino-Adipic acid analogs and carboxycyclopropyl glycines as selective metabotropic glutamate 2 receptor agonists” (Eur J Med Chem, 2024).
Calls of active or inactive are those of the source.

Assays:
[1] = target: Metabotropic glutamate receptor 1 (Rattus norvegicus) (UniProt P23385); assay: Agonist activity at rat mGluR1 receptor expressed in HEK293 cells at 30 uM by IP-1 HTRF assay; type: functional, cell-based
[2] = target: Metabotropic glutamate receptor 5 (Rattus norvegicus) (UniProt P31424); assay: Agonist activity at rat mGluR5 receptor expressed in HEK293 cells at 30 uM by IP-1 HTRF assay; type: functional, cell-based
[3] = target: Metabotropic glutamate receptor 2 (Rattus norvegicus) (UniProt P31421); assay: Agonist activity at rat mGluR2 receptor expressed in HEK293 cells at 30 uM by IP-1 HTRF assay; type: functional, cell-based
[4] = target: Metabotropic glutamate receptor 3 (Rattus norvegicus) (UniProt P31422); assay: Agonist activity at rat mGluR3 receptor expressed in HEK293 cells at 30 uM by IP-1 HTRF assay; type: functional, cell-based
[5] = target: Metabotropic glutamate receptor 4 (Rattus norvegicus) (UniProt P31423); assay: Agonist activity at rat mGluR4 receptor expressed in HEK293 cells at 30 uM by IP-1 HTRF assay; type: functional, cell-based
[6] = target: Metabotropic glutamate receptor 6 (Rattus norvegicus) (UniProt P35349); assay: Agonist activity at rat mGluR6 receptor expressed in HEK293 cells at 30 uM by IP-1 HTRF assay; type: functional, cell-based
[7] = target: Metabotropic glutamate receptor 7 (Rattus norvegicus) (UniProt P35400); assay: Agonist activity at rat mGluR7 receptor expressed in HEK293 cells at 30 uM by IP-1 HTRF assay; type: functional, cell-based
[8] = target: Metabotropic glutamate receptor 8 (Rattus norvegicus) (UniProt P70579); assay: Agonist activity at rat mGluR8 receptor expressed in HEK293 cells at 30 uM by IP-1 HTRF assay; type: functional, cell-based
[9] = target: Metabotropic glutamate receptor 1 (Rattus norvegicus) (UniProt P23385); assay: Antagonist activity at rat mGluR1 receptor expressed in HEK293 cells by IP-1 HTRF assay; type: functional, cell-based
[10] = target: Metabotropic glutamate receptor 5 (Rattus norvegicus) (UniProt P31424); assay: Antagonist activity at rat mGluR5 receptor expressed in HEK293 cells by IP-1 HTRF assay; type: functional, cell-based
[11] = target: Metabotropic glutamate receptor 2 (Rattus norvegicus) (UniProt P31421); assay: Antagonist activity at rat mGluR2 receptor expressed in HEK293 cells by IP-1 HTRF assay; type: functional, cell-based
[12] = target: Metabotropic glutamate receptor 3 (Rattus norvegicus) (UniProt P31422); assay: Antagonist activity at rat mGluR3 receptor expressed in HEK293 cells by IP-1 HTRF assay; type: functional, cell-based
[13] = target: Metabotropic glutamate receptor 4 (Rattus norvegicus) (UniProt P31423); assay: Antagonist activity at rat mGluR4 receptor expressed in HEK293 cells by IP-1 HTRF assay; type: functional, cell-based
[14] = target: Metabotropic glutamate receptor 6 (Rattus norvegicus) (UniProt P35349); assay: Antagonist activity at rat mGluR6 receptor expressed in HEK293 cells by IP-1 HTRF assay; type: functional, cell-based
[15] = target: Metabotropic glutamate receptor 7 (Rattus norvegicus) (UniProt P35400); assay: Antagonist activity at rat mGluR7 receptor expressed in HEK293 cells by IP-1 HTRF assay; type: functional, cell-based
[16] = target: Metabotropic glutamate receptor 8 (Rattus norvegicus) (UniProt P70579); assay: Antagonist activity at rat mGluR8 receptor expressed in HEK293 cells by IP-1 HTRF assay; type: functional, cell-based
[17] = target: Metabotropic glutamate receptor 3 (Homo sapiens, UniProt Q14832); assay: Agonist activity at human recombinant mGluR3 receptor assessed as inhibition of forskolin-stimulated [3H]cAMP accumulation incubated for 20 mins by SPA kit analysis; type: functional
[18] = target: Metabotropic glutamate receptor 4 (Rattus norvegicus, UniProt P31423); assay: Agonist activity at rat mGluR4 receptor expressed in HEK293 cells by IP-1 HTRF assay; type: functional, cell-based
[19] = target: Metabotropic glutamate receptor 6 (Rattus norvegicus, UniProt P35349); assay: Agonist activity at rat mGluR6 receptor expressed in HEK293 cells by IP-1 HTRF assay; type: functional, cell-based; conditions: read-out: EC50
[20] = target: Metabotropic glutamate receptor 7 (Rattus norvegicus, UniProt P35400); assay: Agonist activity at rat mGluR7 receptor expressed in HEK293 cells by IP-1 HTRF assay; type: functional, cell-based
[21] = target: Metabotropic glutamate receptor 8 (Rattus norvegicus, UniProt P70579); assay: Agonist activity at rat mGluR8 receptor expressed in HEK293 cells by IP-1 HTRF assay; type: functional, cell-based
[22] = target: Metabotropic glutamate receptor 2 (Rattus norvegicus, UniProt P31421); assay: Agonist activity at rat mGluR2 receptor expressed in HEK293 cells by IP-1 HTRF assay; type: functional, cell-based
[23] = target: Metabotropic glutamate receptor 1 (Rattus norvegicus) (UniProt P23385); assay: Agonist activity at rat mGluR1 receptor expressed in HEK293 cells at 100 uM by IP-1 HTRF assay; type: functional, cell-based
[24] = target: Metabotropic glutamate receptor 5 (Rattus norvegicus) (UniProt P31424); assay: Agonist activity at rat mGluR5 receptor expressed in HEK293 cells at 100 uM by IP-1 HTRF assay; type: functional, cell-based
[25] = target: Metabotropic glutamate receptor 3 (Rattus norvegicus) (UniProt P31422); assay: Agonist activity at rat mGluR3 receptor expressed in HEK293 cells at 100 uM by IP-1 HTRF assay; type: functional, cell-based
[26] = target: Metabotropic glutamate receptor 4 (Rattus norvegicus) (UniProt P31423); assay: Agonist activity at rat mGluR4 receptor expressed in HEK293 cells at 100 uM by IP-1 HTRF assay; type: functional, cell-based
[27] = target: Metabotropic glutamate receptor 6 (Rattus norvegicus) (UniProt P35349); assay: Agonist activity at rat mGluR6 receptor expressed in HEK293 cells at 100 uM by IP-1 HTRF assay; type: functional, cell-based
[28] = target: Metabotropic glutamate receptor 7 (Rattus norvegicus) (UniProt P35400); assay: Agonist activity at rat mGluR7 receptor expressed in HEK293 cells at 100 uM by IP-1 HTRF assay; type: functional, cell-based
[29] = target: Metabotropic glutamate receptor 8 (Rattus norvegicus) (UniProt P70579); assay: Agonist activity at rat mGluR8 receptor expressed in HEK293 cells at 100 uM by IP-1 HTRF assay; type: functional, cell-based

Metabotropic glutamate receptor 4 (Rattus norvegicus), sequence (P31423 whole entry): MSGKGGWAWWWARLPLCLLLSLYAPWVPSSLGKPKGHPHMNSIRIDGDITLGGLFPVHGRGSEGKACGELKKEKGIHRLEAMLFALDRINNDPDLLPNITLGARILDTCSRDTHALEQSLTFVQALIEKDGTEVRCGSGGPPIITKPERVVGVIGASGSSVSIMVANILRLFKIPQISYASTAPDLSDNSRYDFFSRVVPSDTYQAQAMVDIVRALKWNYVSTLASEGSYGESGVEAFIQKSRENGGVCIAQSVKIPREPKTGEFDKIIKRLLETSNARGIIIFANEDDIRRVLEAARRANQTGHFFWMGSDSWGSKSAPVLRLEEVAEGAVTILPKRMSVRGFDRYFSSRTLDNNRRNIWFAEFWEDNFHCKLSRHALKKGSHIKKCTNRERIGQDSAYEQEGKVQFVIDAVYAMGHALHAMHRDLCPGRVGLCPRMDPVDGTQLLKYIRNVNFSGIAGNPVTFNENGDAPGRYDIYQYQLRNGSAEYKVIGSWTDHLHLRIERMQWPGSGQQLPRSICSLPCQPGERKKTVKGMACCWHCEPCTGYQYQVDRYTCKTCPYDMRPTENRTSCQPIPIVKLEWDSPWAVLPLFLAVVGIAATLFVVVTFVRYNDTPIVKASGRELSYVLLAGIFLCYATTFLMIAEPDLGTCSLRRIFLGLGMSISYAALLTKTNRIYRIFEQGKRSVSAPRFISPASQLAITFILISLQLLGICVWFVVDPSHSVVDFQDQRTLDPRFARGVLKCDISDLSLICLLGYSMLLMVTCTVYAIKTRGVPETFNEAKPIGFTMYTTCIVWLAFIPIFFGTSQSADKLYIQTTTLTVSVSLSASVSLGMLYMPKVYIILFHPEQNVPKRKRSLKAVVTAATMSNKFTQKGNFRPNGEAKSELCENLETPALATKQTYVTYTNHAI
Metabotropic glutamate receptor 2, sequence (P31421 whole entry): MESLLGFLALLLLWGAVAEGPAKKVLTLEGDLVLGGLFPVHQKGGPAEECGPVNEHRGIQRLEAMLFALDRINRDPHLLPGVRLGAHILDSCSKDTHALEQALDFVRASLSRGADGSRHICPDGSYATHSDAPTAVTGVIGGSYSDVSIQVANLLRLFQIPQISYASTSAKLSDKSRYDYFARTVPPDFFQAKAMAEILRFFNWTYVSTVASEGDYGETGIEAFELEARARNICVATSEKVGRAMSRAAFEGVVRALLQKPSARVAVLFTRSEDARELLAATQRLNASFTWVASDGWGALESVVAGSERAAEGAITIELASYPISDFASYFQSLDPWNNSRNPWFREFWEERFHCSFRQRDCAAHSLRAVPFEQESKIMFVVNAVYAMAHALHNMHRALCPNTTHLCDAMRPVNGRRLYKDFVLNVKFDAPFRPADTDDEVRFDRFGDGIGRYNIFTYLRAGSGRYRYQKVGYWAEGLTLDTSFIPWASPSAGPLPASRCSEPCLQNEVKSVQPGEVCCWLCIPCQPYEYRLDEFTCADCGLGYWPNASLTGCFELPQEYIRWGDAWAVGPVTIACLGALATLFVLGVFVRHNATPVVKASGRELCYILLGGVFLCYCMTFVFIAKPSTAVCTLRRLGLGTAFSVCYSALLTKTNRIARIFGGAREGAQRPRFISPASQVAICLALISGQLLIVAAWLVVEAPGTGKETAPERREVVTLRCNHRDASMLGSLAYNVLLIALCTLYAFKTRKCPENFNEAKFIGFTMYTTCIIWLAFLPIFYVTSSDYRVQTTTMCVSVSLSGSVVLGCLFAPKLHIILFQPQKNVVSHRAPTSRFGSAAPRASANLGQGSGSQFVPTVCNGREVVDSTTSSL
Metabotropic glutamate receptor 7 (Rattus norvegicus), sequence (P35400 whole entry): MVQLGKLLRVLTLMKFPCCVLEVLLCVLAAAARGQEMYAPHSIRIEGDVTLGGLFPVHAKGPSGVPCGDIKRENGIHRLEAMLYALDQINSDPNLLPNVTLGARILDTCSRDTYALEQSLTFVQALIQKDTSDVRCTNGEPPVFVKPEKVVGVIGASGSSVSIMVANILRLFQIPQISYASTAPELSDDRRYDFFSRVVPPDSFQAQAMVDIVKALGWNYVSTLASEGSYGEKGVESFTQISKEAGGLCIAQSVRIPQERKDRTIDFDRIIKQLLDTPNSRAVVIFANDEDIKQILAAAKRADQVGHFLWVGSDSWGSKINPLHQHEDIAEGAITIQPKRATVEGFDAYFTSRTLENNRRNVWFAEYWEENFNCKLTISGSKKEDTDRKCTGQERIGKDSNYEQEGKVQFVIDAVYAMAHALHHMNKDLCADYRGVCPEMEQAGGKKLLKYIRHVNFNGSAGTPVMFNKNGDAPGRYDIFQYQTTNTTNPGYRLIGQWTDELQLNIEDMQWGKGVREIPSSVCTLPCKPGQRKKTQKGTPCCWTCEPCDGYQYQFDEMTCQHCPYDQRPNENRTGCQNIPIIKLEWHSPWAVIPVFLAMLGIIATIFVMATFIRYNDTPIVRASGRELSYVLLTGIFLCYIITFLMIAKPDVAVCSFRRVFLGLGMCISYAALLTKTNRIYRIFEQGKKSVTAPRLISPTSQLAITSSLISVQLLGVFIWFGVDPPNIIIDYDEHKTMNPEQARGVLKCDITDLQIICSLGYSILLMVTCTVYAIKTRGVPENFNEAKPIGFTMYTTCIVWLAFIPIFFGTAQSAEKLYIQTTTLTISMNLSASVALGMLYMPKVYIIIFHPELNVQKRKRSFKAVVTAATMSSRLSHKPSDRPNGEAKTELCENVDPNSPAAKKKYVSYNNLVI
Metabotropic glutamate receptor 6 (Rattus norvegicus), sequence (P35349 whole entry): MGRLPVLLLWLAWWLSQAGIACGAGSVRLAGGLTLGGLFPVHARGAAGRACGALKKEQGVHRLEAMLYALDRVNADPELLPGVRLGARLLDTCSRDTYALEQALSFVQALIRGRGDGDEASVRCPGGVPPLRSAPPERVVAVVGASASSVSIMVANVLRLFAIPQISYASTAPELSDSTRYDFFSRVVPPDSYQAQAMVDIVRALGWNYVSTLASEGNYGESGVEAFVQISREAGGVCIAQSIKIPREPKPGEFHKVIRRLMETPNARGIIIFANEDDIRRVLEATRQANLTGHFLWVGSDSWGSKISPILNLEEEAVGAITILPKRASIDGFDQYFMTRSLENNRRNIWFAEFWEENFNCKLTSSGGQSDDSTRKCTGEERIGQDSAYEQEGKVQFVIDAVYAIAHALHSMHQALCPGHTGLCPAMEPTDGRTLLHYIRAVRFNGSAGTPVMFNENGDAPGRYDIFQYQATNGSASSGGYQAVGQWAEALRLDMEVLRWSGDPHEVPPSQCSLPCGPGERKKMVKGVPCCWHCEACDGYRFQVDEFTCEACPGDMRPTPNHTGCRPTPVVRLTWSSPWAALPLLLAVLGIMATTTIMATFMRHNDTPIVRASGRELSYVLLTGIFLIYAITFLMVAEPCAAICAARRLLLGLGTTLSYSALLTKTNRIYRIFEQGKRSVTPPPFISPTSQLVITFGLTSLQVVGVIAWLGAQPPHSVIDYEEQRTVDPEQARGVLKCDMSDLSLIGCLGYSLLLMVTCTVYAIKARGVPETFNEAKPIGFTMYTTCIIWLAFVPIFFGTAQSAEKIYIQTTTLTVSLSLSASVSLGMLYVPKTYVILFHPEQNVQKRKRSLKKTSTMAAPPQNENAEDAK
Metabotropic glutamate receptor 3 (Rattus norvegicus), sequence (P31422 23-879 limits assumed): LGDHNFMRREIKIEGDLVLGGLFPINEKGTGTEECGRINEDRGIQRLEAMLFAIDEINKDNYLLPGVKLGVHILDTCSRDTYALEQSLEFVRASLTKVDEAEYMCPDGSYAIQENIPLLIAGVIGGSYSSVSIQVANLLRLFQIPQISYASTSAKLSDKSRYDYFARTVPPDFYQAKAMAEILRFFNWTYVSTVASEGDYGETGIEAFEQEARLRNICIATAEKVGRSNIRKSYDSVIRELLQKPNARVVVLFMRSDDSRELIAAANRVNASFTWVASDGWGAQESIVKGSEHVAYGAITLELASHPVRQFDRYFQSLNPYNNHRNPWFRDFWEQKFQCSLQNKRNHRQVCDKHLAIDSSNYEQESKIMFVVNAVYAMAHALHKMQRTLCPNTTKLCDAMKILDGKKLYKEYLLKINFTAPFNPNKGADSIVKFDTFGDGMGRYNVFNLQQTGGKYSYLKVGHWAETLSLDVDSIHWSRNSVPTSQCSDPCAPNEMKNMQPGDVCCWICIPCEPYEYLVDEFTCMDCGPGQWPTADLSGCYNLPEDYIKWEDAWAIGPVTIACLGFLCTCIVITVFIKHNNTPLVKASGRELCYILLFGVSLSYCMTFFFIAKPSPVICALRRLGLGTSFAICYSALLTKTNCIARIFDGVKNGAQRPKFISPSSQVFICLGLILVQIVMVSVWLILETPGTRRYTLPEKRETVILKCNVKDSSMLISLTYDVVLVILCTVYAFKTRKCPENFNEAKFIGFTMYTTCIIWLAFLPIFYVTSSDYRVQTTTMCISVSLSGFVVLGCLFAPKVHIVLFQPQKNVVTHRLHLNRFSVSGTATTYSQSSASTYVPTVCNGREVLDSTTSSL
Metabotropic glutamate receptor 4, sequence (P31423 whole entry): as the sequence (P31423 whole entry) above
Metabotropic glutamate receptor 7, sequence (P35400 whole entry): as the sequence (P35400 whole entry) above
Metabotropic glutamate receptor 6, sequence (P35349 whole entry): as the sequence (P35349 whole entry) above

C[C@]1(C(=O)O)C[C@H]1C(N)C(=O)O (mixture of isomers)
inactive: Activity [1] | Activity [2] | Activity [3] | Activity [4] | Activity [5] | Activity [6] | Activity [7] | Activity [8] | inhibition [9] | inhibition [10] | inhibition [11] | inhibition [12] | inhibition [13] | inhibition [14] | inhibition [15] | inhibition [16]

N[C@@]1(C(=O)O)CC[C@@H](C(=O)O)C1
860 µM: EC50 [17]

N[C@@H](CCP(=O)(O)O)C(=O)O
~30 µM: EC50 [18] | EC50 [20] | EC50 [21]
2500 nM: EC50 [19]

C[C@@]1(C(=O)O)C[C@@H]1C(N)C(=O)O (mixture of isomers)
inactive: Activity [1] | Activity [2] | Activity [4] | Activity [5] | Activity [6] | Activity [7] | Activity [8] | inhibition [9] | inhibition [10] | inhibition [11] | inhibition [12] | inhibition [13] | inhibition [14] | inhibition [15] | inhibition [16]
8.9 µM: EC50 ([22]; read-out: EC50)

C[C@@]1(C(=O)O)C[C@@H]1C[C@H](N)C(=O)O (mixture of isomers)
inactive: Activity [23] | Activity [24] | Activity [25] | Activity [26] | Activity [27] | Activity [28] | Activity [29] | inhibition [9] | inhibition [10] | inhibition [11] | inhibition [12] | inhibition [13] | inhibition [14] | inhibition [15] | inhibition [16]
15.8 µM: EC50 ([22]; read-out: pEC50 (converted))
10 µM: EC50 ([22]; read-out: EC50)

CC1(C[C@H](N)C(=O)O)CC1C(=O)O (some centres undefined)
inactive: inhibition [9] | inhibition [10] | inhibition [11] | inhibition [12] | inhibition [13] | inhibition [14] | inhibition [15] | inhibition [16]

C[C@@]1(C[C@H](N)C(=O)O)C[C@H]1C(=O)O
inactive: Activity [1] | Activity [2] | Activity [3] | Activity [4] | Activity [5] | Activity [6] | Activity [7] | Activity [8] | inhibition [9] | inhibition [10] | inhibition [11] | inhibition [12] | inhibition [13] | inhibition [14] | inhibition [15] | inhibition [16]

C[C@]1(C(=O)O)C[C@@H]1[C@H](N)C(=O)O
4.1 µM: EC50 ([22]; read-out: EC50)
inactive: Activity [1] | Activity [2] | Activity [4] | Activity [5] | Activity [6] | Activity [7] | Activity [8] | inhibition [9] | inhibition [10] | inhibition [11] | inhibition [12] | inhibition [13] | inhibition [14] | inhibition [15] | inhibition [16]
